According to ChEMBL document CHEMBL1201862, “PubChem BioAssay data set” (2004):
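The compound was tested at five concentrations on cells cultured in 96-well plates, with a 48-hour exposure period. At the GI50, growth is halved.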 Calls of active or inactive are those of the source. No stated cut-off is given here; in the data, active = GI50 up to about 1.1 µM and inactive = higher.

Columns and labels:
Assay in all cases: NCI-60 cell line screen, 48 h
RXF 631 = tested on: RXF 631
SNB-78 = tested on: SNB-78
XF498 = tested on: XF498
HOP-18 = tested on: HOP-18
LXFL 529 = tested on: LXFL 529
DLD-1 = tested on: DLD-1
M19-MEL = tested on: M19-MEL
DMS-114 = tested on: DMS-114
DMS-273 = tested on: DMS-273

Row | SMILES | GI50 (RXF 631) | GI50 (SNB-78) | GI50 (XF498) | GI50 (HOP-18) | GI50 (LXFL 529) | GI50 (DLD-1) | GI50 (M19-MEL) | GI50 (DMS-114) | GI50 (DMS-273)
1 | C[C@H](C(=O)C12CC3CC(CC(C3)C1)C2)[C@H](O)c1ccccc1 | 31.2 µM (inactive) | 31.6 µM (inactive) | 26 µM (inactive) | 98.9 µM (inactive) | 43.8 µM (inactive) | 45.5 µM (inactive) | – | – | –
2 | O=C1C=CC(=O)c2c1c1c(c3c2C2c4ccccc4C3c3ccccc32)C2c3ccccc3C1c1ccccc12 | – | 1.81 µM (inactive) | 1.75 µM (inactive) | – | 1.08 µM (active) | 0.982 µM (active) | 1.98 µM (inactive) | 1.95 µM (inactive) | 2.11 µM (inactive)
3 | CC1=C(C(=O)Nc2ccccc2C)C(/C=C/c2ccccc2)C(C(=O)Nc2ccccc2C)=C(C)N1 | > 100 µM (inactive) | > 100 µM (inactive) | > 100 µM (inactive) | > 100 µM (inactive) | > 100 µM (inactive) | > 100 µM (inactive) | > 100 µM (inactive) | – | > 100 µM (inactive)
4 | Cc1nc(Nc2ccccc2)sc1C(=O)NNc1ccc([N+](=O)[O-])cc1[N+](=O)[O-] | – | 49.2 µM (inactive) | 24.3 µM (inactive) | 21.5 µM (inactive) | 28.7 µM (inactive) | 25.5 µM (inactive) | 36 µM (inactive) | 23.3 µM (inactive) | 25.7 µM (inactive)
5 | O=C(/C=C\c1ccc(Cl)c(Cl)c1)c1ccc(Cl)cc1Cl | 35.9 µM (inactive) | > 10 µM (inactive) | – | > 10 µM (inactive) | 2.26 µM (inactive) | 5.41 µM (inactive) | 18.7 µM (inactive) | > 10 µM (inactive) | 10.4 µM (inactive)
6 | O=C(O)/C(=C/c1ccccc1[N+](=O)[O-])c1cccs1 | > 100 µM (inactive) | > 100 µM (inactive) | > 100 µM (inactive) | > 100 µM (inactive) | > 100 µM (inactive) | > 100 µM (inactive) | > 100 µM (inactive) | – | > 100 µM (inactive)
7 | Cn1c2c(c3ccccc31)CCN(CCCCN1CCc3c(n(C)c4ccccc34)C1=O)C2 | > 100 µM (inactive) | > 100 µM (inactive) | > 100 µM (inactive) | > 100 µM (inactive) | > 100 µM (inactive) | > 100 µM (inactive) | > 100 µM (inactive) | 73.1 µM (inactive) | > 100 µM (inactive)
8 | CC(=O)OC1CCn2nnc(COC(=O)NC(C)C)c21 (stereo not given) | > 100 µM (inactive) | > 100 µM (inactive) | > 100 µM (inactive) | > 100 µM (inactive) | > 100 µM (inactive) | > 100 µM (inactive) | – | > 100 µM (inactive) | –
9 | CCOC(=O)C(=O)Nc1ccccc1C(F)(F)F | – | > 100 µM (inactive) | > 100 µM (inactive) | 0.9 µM (active) | > 100 µM (inactive) | > 100 µM (inactive) | – | – | > 100 µM (inactive)
10 | Cc1cc([N+](=O)[O-])c(C)c2c1[nH]c1ccc(/C(CCC3CCCC3)=N\N)cc12 | – | 36.5 µM (inactive) | 14.7 µM (inactive) | 11 µM (inactive) | – | – | 19 µM (inactive) | 17.6 µM (inactive) | 20.2 µM (inactive)
11 | O=C(O)[C@@H](NS(=O)(=O)c1ccc([N+](=O)[O-])cc1)c1ccccc1 | > 100 µM (inactive) | – | > 100 µM (inactive) | > 100 µM (inactive) | > 100 µM (inactive) | > 100 µM (inactive) | > 100 µM (inactive) | – | > 100 µM (inactive)
12 | CN1CCN2c3ccccc3CC(C#N)(C#N)C2C1 (stereo not given) | > 100 µM (inactive) | > 100 µM (inactive) | – | > 100 µM (inactive) | > 100 µM (inactive) | > 100 µM (inactive) | > 100 µM (inactive) | > 100 µM (inactive) | > 100 µM (inactive)
13 | CCOC(=O)C1S/C(=N\c2ccc(OC)c(OC)c2)N=C1C (stereo not given) | 47.6 µM (inactive) | 48.5 µM (inactive) | 29.2 µM (inactive) | > 100 µM (inactive) | 33.3 µM (inactive) | 31.4 µM (inactive) | – | 28.5 µM (inactive) | 38.4 µM (inactive)
14 | Nc1nc(CCC(=O)Nc2cccc(C(F)(F)F)c2)cc(-c2cccc3ccccc23)n1 | > 100 µM (inactive) | > 100 µM (inactive) | > 100 µM (inactive) | > 100 µM (inactive) | > 100 µM (inactive) | > 100 µM (inactive) | > 100 µM (inactive) | > 100 µM (inactive) | > 100 µM (inactive)
15 | CC(C)(C)N1CC2(CCCCC2)C1=O | – | > 100 µM (inactive) | – | > 100 µM (inactive) | – | > 100 µM (inactive) | > 100 µM (inactive) | > 100 µM (inactive) | > 100 µM (inactive)
16 | COC(=O)c1ccc(NCc2cc(O)ccc2O)cc1 | – | 15.2 µM (inactive) | 2.96 µM (inactive) | 14.2 µM (inactive) | 5.06 µM (inactive) | 18.1 µM (inactive) | 16.7 µM (inactive) | 3.52 µM (inactive) | 24.7 µM (inactive)
17 | COc1ccc2nccc(C3OC(=O)N4CCC(=O)CC34)c2c1 (stereo not given) | > 100 µM (inactive) | > 100 µM (inactive) | > 100 µM (inactive) | – | > 100 µM (inactive) | – | > 100 µM (inactive) | – | > 10 µM (inactive)
18 | C=C1CC2OC2(C(=O)O[C@H]2CCC3[C@@H]4CCC5=CC(=O)CC[C@]5(C)C4CC[C@@]32C)C1=O (stereo not given in full) | – | 8.26 µM (inactive) | 5.19 µM (inactive) | 5.83 µM (inactive) | 2.18 µM (inactive) | 2.64 µM (inactive) | 7.57 µM (inactive) | 5.2 µM (inactive) | 4.45 µM (inactive)
19 | CC[P+](C)(C)CC | > 100 µM (inactive) | > 100 µM (inactive) | – | > 100 µM (inactive) | > 100 µM (inactive) | > 100 µM (inactive) | > 100 µM (inactive) | > 100 µM (inactive) | > 100 µM (inactive)
20 | C[C@H](NC(=O)n1c2ccccc2c2ccccc21)C(=O)O | > 100 µM (inactive) | – | – | > 100 µM (inactive) | > 100 µM (inactive) | > 100 µM (inactive) | > 100 µM (inactive) | > 100 µM (inactive) | > 100 µM (inactive)
21 | CCCC(=O)OC1C(C(O)CO)OC2OC(C)(C)OC21 (stereo not given) | – | > 100 µM (inactive) | > 100 µM (inactive) | > 100 µM (inactive) | – | > 100 µM (inactive) | > 100 µM (inactive) | > 100 µM (inactive) | > 100 µM (inactive)
22 | COc1c(C)c2c(c(C)c1Cl)Oc1c(C=O)c(O)c(Cl)c(C)c1C(=O)O2 | – | 18.2 µM (inactive) | 2.66 µM (inactive) | – | 28.1 µM (inactive) | 27.7 µM (inactive) | 31.3 µM (inactive) | 23.3 µM (inactive) | 22.4 µM (inactive)
23 | CC12CC(Sc3ccccc3N1)c1ccccc1O2 (stereo not given) | 15.1 µM (inactive) | 16.5 µM (inactive) | 16.3 µM (inactive) | 14.1 µM (inactive) | 15.2 µM (inactive) | 15.2 µM (inactive) | 16.7 µM (inactive) | 15.6 µM (inactive) | 16.3 µM (inactive)
24 | O=C(O)COc1ccc2c3c1C(=O)CCC3CO2 (stereo not given) | – | > 100 µM (inactive) | > 100 µM (inactive) | > 100 µM (inactive) | > 100 µM (inactive) | > 100 µM (inactive) | > 100 µM (inactive) | > 100 µM (inactive) | > 100 µM (inactive)
25 | O=C(C(=O)c1ccc(Cc2ccc(C(=O)C(=O)c3ccccc3)cc2)cc1)c1ccccc1 | > 100 µM (inactive) | > 100 µM (inactive) | – | > 100 µM (inactive) | > 100 µM (inactive) | > 100 µM (inactive) | > 100 µM (inactive) | > 100 µM (inactive) | > 100 µM (inactive)
26 | CC(=O)O[C@H]1CC[C@@]2(C)C(CC[C@]3(C)C2CC[C@]2(C)Oc4c(C)cc(O)cc4C[C@@H]23)C1(C)C (stereo not given in full) | 5.16 µM (inactive) | 7.52 µM (inactive) | – | 13.5 µM (inactive) | 3.65 µM (inactive) | 10.4 µM (inactive) | 11.9 µM (inactive) | 7.1 µM (inactive) | 3.65 µM (inactive)
